In the kinase profiling compilation of Christmann-Franck et al. (2016):

Tests used:
Assay in all cases: KINOMEscan competition binding
Settings in all cases: compound 1.0 µM
CSNK1A1L (human) = CSNK1A1L (human) (UniProt Q8N752)
ULK2 (human) = ULK2 (human) (UniProt Q8IYT8)
EGFR (human) = EGFR (human) (UniProt P00533)
PRPF4B (human) = PRPF4B (human) (UniProt Q13523)
ULK3 (human) = ULK3 (human) (UniProt Q6PHR2)
PLK1 (human) = PLK1 (human) (UniProt P53350)
SRPK2 (human) = SRPK2 (human) (UniProt P78362)
LTK (human) = LTK (human) (UniProt P29376)
EPHB4 (human) = EPHB4 (human) (UniProt P54760)
MLTK (human) = MLTK (human) (UniProt Q9NYL2)
STK17A (human) = STK17A (human) (UniProt Q9UEE5)
MAP2K2 (human) = MAP2K2 (human) (UniProt P36507)
ABL2 (human) = ABL2 (human) (UniProt P42684)
MAST1 (human) = MAST1 (human) (UniProt Q9Y2H9)
STK25 (human) = STK25 (human) (UniProt O00506)
YES1 (human) = YES1 (human) (UniProt P07947)
SRMS (human) = SRMS (human) (UniProt Q9H3Y6)
CAMK4 (human) = CAMK4 (human) (UniProt Q16566)
GSK3A (human) = GSK3A (human) (UniProt P49840)
AURKC (human) = AURKC (human) (UniProt Q9UQB9)
NEK7 (human) = NEK7 (human) (UniProt Q8TDX7)
[1] = system: KIT (human), P10721 [D816V]
RPS6KA6 KD1 (human) = RPS6KA6 KD1 (human) (UniProt Q9UK32)
CHEK2 (human) = CHEK2 (human) (UniProt O96017)
[2] = system: ABL1 (human), P00519 [T315I]
ICK (human) = ICK (human) (UniProt Q9UPZ9)
PLK4 (human) = PLK4 (human) (UniProt O00444)
MAPK14 (human) = MAPK14 (human) (UniProt Q16539)
MYO3B (human) = MYO3B (human) (UniProt Q8WXR4)
CLK4 (human) = CLK4 (human) (UniProt Q9HAZ1)
[3] = system: KIT (human), P10721 [V559D/T670I]
LATS1 (human) = LATS1 (human) (UniProt O95835)
SYK (human) = SYK (human) (UniProt P43405)
STK39 (human) = STK39 (human) (UniProt Q9UEW8)
TLK2 (human) = TLK2 (human) (UniProt Q86UE8)
CLK2 (human) = CLK2 (human) (UniProt P49760)
MUSK (human) = MUSK (human) (UniProt O15146)
NLK (human) = NLK (human) (UniProt Q9UBE8)
STK33 (human) = STK33 (human) (UniProt Q9BYT3)
PRKD3 (human) = PRKD3 (human) (UniProt O94806)
PRKG1 (human) = PRKG1 (human) (UniProt Q13976)
Chain of PRKG1 (human) (Q13976 whole entry, looked up): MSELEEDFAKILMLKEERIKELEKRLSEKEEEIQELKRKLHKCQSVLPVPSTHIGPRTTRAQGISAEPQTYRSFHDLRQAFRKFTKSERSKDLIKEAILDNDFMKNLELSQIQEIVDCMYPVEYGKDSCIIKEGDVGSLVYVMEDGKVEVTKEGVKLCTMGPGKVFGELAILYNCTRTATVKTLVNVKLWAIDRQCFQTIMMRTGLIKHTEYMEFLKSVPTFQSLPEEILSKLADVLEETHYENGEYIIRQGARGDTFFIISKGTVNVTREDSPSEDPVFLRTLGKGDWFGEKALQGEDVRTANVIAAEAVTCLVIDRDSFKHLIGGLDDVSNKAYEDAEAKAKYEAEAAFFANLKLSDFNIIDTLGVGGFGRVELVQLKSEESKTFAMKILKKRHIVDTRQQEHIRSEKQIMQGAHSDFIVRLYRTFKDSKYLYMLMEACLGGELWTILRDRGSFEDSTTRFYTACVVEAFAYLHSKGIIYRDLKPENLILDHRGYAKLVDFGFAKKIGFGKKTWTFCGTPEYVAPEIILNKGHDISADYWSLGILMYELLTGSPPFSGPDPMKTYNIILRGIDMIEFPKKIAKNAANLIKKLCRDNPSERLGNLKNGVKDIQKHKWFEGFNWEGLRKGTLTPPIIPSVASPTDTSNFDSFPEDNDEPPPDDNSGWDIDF

Chain of TLK2 (human) (Q86UE8 whole entry, looked up): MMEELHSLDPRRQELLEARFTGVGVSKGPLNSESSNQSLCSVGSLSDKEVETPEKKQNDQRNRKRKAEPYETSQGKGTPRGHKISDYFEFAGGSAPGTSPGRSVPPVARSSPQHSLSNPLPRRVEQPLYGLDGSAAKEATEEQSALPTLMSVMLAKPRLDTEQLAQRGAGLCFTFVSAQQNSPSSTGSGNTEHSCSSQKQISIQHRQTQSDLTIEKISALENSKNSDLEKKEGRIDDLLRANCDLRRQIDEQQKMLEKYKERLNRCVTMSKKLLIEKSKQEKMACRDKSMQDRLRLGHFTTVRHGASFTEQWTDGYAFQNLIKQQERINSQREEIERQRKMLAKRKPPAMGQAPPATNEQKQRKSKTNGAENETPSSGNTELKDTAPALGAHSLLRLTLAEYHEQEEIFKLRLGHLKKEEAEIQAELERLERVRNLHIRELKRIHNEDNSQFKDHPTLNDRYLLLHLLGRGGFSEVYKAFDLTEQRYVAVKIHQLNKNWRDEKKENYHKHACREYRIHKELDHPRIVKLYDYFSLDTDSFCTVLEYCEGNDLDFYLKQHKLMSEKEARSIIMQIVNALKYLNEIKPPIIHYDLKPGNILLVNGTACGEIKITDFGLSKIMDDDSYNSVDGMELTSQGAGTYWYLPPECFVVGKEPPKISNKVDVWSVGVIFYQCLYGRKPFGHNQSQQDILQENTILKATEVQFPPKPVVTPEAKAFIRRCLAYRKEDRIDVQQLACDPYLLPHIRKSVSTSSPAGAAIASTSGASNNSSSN
Chain of KIT (human), P10721 [V559D/T670I] (P10721 whole entry V559D/T670I, looked up): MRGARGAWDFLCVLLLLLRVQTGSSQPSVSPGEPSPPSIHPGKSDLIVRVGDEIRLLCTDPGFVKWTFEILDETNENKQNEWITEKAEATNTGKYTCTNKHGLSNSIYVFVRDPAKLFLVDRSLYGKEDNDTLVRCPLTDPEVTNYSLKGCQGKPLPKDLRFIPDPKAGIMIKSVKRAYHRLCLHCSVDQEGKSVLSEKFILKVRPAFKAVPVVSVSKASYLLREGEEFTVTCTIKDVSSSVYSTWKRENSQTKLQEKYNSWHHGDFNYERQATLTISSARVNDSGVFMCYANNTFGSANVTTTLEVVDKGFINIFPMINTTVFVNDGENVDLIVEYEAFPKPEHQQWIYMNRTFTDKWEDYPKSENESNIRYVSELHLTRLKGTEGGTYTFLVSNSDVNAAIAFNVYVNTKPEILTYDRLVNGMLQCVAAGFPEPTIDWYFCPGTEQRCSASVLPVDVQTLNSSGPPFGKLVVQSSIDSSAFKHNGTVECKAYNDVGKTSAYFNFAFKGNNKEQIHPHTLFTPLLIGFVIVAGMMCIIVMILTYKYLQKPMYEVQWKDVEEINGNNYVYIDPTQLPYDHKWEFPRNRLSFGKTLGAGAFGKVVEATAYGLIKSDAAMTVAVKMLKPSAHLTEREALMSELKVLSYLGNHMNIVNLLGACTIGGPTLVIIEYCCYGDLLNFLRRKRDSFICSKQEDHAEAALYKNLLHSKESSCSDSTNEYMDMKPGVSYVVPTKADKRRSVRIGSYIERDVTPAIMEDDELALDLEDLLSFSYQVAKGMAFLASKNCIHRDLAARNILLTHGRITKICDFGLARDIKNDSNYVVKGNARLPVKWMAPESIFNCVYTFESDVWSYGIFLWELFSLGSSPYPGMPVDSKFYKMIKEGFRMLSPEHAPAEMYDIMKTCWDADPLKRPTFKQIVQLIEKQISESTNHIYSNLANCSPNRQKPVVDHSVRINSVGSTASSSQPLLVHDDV
Chain of STK25 (human) (O00506 whole entry, looked up): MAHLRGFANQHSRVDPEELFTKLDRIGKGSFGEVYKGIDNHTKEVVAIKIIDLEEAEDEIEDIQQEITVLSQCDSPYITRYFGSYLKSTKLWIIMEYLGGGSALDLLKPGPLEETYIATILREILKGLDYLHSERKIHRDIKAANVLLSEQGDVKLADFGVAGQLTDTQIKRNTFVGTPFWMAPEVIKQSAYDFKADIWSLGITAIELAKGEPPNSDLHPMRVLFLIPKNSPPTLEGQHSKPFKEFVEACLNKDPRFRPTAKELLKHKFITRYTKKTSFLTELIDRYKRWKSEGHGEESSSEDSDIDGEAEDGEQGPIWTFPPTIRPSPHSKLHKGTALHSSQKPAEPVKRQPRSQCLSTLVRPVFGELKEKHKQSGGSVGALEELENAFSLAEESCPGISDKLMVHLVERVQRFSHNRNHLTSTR
Chain of CSNK1A1L (human) (Q8N752 whole entry, looked up): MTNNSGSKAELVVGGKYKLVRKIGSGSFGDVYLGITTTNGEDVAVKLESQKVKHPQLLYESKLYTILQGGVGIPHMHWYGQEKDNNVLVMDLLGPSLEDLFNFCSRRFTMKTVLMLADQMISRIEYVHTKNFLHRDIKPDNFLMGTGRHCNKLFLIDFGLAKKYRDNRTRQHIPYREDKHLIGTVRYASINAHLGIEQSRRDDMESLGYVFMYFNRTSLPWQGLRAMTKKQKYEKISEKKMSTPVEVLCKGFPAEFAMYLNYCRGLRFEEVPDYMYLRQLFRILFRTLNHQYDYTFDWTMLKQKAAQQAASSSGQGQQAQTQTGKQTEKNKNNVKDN
Chain of EPHB4 (human) (P54760 whole entry, looked up): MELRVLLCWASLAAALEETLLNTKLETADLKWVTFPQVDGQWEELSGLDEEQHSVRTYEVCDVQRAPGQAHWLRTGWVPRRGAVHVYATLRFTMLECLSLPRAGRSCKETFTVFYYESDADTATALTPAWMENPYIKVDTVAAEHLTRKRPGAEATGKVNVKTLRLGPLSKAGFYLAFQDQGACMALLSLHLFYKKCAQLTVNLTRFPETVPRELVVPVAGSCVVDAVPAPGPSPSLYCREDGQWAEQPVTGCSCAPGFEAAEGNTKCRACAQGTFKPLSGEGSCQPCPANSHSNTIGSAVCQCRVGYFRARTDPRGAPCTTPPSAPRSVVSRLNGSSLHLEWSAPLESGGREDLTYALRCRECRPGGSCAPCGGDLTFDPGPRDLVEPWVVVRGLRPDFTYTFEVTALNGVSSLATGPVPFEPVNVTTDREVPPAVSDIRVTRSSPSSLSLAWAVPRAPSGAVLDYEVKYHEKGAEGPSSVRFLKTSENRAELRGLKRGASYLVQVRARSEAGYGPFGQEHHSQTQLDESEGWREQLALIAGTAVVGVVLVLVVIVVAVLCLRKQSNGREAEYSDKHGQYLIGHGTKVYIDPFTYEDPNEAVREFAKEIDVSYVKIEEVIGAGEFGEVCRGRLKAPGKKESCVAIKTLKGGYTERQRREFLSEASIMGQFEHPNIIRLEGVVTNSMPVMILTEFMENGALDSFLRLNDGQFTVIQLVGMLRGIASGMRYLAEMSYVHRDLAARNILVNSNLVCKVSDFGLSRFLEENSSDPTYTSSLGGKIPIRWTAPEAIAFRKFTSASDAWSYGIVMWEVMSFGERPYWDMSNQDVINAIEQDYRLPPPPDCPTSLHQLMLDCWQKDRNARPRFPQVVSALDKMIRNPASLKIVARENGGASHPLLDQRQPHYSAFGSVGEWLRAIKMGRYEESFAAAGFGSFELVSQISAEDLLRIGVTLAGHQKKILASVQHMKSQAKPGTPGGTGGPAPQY
Chain of LTK (human) (P29376 whole entry, looked up): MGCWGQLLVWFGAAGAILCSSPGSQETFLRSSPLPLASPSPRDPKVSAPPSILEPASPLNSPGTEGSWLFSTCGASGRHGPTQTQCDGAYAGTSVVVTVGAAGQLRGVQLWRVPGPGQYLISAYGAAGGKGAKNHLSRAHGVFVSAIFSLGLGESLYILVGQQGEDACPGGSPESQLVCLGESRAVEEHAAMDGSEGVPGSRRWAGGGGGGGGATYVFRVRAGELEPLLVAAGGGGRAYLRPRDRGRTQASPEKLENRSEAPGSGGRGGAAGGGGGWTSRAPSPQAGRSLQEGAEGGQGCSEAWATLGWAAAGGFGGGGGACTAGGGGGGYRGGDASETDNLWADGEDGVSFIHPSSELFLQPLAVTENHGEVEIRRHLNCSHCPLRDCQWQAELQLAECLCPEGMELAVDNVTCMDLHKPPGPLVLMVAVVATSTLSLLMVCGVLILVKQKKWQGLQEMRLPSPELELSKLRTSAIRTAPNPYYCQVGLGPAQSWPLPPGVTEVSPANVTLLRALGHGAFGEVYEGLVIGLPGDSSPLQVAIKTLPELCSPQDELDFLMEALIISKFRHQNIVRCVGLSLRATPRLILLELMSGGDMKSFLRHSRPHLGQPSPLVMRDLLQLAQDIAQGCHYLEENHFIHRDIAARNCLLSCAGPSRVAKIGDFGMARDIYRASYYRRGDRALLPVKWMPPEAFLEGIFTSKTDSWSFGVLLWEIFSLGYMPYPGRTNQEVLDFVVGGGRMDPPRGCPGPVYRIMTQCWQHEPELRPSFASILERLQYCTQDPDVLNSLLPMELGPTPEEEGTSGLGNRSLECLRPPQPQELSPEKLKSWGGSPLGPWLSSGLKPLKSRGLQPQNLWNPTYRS

Nc1cc(C(F)(F)F)c(-c2cc(N3CCOCC3)nc(N3CCOCC3)n2)cn1
inhibition of binding (CSNK1A1L (human)): 0%
inhibition of binding (ULK2 (human)): 0%
inhibition of binding (EGFR (human)): 10%
inhibition of binding (PRPF4B (human)): 4%
inhibition of binding (ULK3 (human)): 17%
inhibition of binding (PLK1 (human)): 30%
inhibition of binding (SRPK2 (human)): 27%
inhibition of binding (LTK (human)): 0%
inhibition of binding (EPHB4 (human)): 4%
inhibition of binding (MLTK (human)): 0%
inhibition of binding (STK17A (human)): 0%
inhibition of binding (MAP2K2 (human)): 0%
inhibition of binding (ABL2 (human)): 0%
inhibition of binding (MAST1 (human)): 0%
inhibition of binding (STK25 (human)): 0%
inhibition of binding (YES1 (human)): 0%
inhibition of binding (SRMS (human)): 0%
inhibition of binding (CAMK4 (human)): 50%
inhibition of binding (GSK3A (human)): 42%
inhibition of binding (AURKC (human)): 0%
inhibition of binding (NEK7 (human)): 0%
inhibition of binding [1]: 3%
inhibition of binding (RPS6KA6 KD1 (human)): 0%
inhibition of binding (CHEK2 (human)): 0%
inhibition of binding [2]: 2%
inhibition of binding (ICK (human)): 0%
inhibition of binding (PLK4 (human)): 1%
inhibition of binding (MAPK14 (human)): 0%
inhibition of binding (MYO3B (human)): 1%
inhibition of binding (CLK4 (human)): 70%
inhibition of binding [3]: 0%
inhibition of binding (LATS1 (human)): 4%
inhibition of binding (SYK (human)): 0%
inhibition of binding (STK39 (human)): 2%
inhibition of binding (TLK2 (human)): 13%
inhibition of binding (CLK2 (human)): 0%
inhibition of binding (MUSK (human)): 0%
inhibition of binding (NLK (human)): 0%
inhibition of binding (STK33 (human)): 0%
inhibition of binding (PRKD3 (human)): 11%
inhibition of binding (PRKG1 (human)): 0%
